# Patent publication US10821100B2, “Triazolone compounds as mPGES-1 inhibitors” (Glenmark Pharmaceuticals S.A., priority 2012, dated 2020)
# Biological target: T1, Recombinant human mPGES-1 (Homo sapiens, UniProt O14684)
# T1 construct: made in house; host or cells: CHO cells (crude microsomal fractions)
# T1 sequence (O14684 1-152): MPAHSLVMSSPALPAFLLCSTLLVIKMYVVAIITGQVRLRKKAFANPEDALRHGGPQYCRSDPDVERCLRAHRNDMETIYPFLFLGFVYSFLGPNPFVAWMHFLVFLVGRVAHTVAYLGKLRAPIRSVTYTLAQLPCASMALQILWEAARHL
# Assay: In-vitro screening of mPGES-1 inhibitors (inhibition of PGE2 formation from PGH2, HTRF detection)
# Format: biochemical
# Conditions: mPGES-1 enzyme; for inhibition at 1 µM: 1 μM test compound, read-out: Percentage inhibition at 1 μM; for inhibition at 1 µM / inhibition at 3 µM / inhibition at 10 µM: crude microsomal fractions; for inhibition at 3 µM: 3 μM test compound, read-out: Percentage inhibition at 3 μM; for IC50: class symbols; for inhibition at 10 µM: 10 μM test compound, read-out: Percentage inhibition at 10 μM
# Summary of the method: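 PGH2-to-PGE2 isomerization run for 1 min with 15 μM PGH2 after 10 min compound preincubation with microsomal enzyme (40–60 μg/mL) and 2.5 mM GSH, pH buffer 0.1 M potassium phosphate with EDTA. Stannous chloride quench, HTRF PGE2 readout, IC50 fitted against uninhibited reaction.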
smiles,measurement,value
"COc1cc(-n2nc(-c3cc(CNC(=O)C4CC4)ccc3Cl)[nH]c2=O)ccc1-c1nc(-c2ccc(Cl)cc2)no1 [Example-57, N-(4-Chloro-3-(1-(4-(3-(4-chlorophenyl)-1,2,4-oxadiazol-5-yl)-3-methoxyphenyl)-5-oxo-4,5-dihydro-1H-1,2,4-triazol-3-yl)benzyl)cyclopropanecarboxamide]",inhibition at 1 µM,98.7%
same,inhibition at 3 µM,98.5%
same,IC50,< 50 nM
"COc1cc(-n2nc(-c3c(F)cccc3Cl)[nH]c2=O)ccc1-c1nc2cc(C)c(C)cc2n1C [Example-58, 3-(2-Chloro-6-fluorophenyl)-1-(3-methoxy-4-(1,5,6-trimethyl-1H-benzo[d]imidazol-2-yl)phenyl)-1H-1,2,4-triazol-5(4H)-one]",inhibition at 1 µM,95.2%
same,inhibition at 10 µM,97.3%
same,IC50,50 to 100 nM
"COc1cc(-n2nc(-c3c(F)cccc3Cl)[nH]c2=O)ccc1C#Cc1cc(Cl)ccc1Cl [Example-59, 3-(2-Chloro-6-fluorophenyl)-1-(4-((2,5-dichlorophenyl)ethynyl)-3-methoxyphenyl)-1H-1,2,4-triazol-5(4H)-one]",inhibition at 1 µM,93.9%
same,inhibition at 10 µM,96.8%
same,IC50,< 50 nM
"COc1cc(-n2nc(-c3c(F)cccc3Cl)[nH]c2=O)ccc1C#Cc1cccc(Cl)c1F [Example-60, 1-(4-((3-Chloro-2-fluorophenyl)ethynyl)-3-methoxyphenyl)-3-(2-chloro-6-fluorophenyl)-1H-1,2,4-triazol-5(4H)-one]",inhibition at 1 µM,95.4%
same,inhibition at 10 µM,93.1%
same,IC50,< 50 nM
"COc1cc(-n2nc(-c3c(F)cccc3Cl)[nH]c2=O)ccc1C#Cc1ccc(C(F)(F)F)cc1Cl [Example-61, 1-(4-((2-Chloro-4-(trifluoromethyl)phenyl)ethynyl)-3-methoxyphenyl)-3-(2-chloro-6-fluorophenyl)-1H-1,2,4-triazol-5(4H)-one]",inhibition at 1 µM,92.4%
same,inhibition at 10 µM,96.8%
same,IC50,< 50 nM
"COc1cc(-n2nc(-c3c(Cl)cccc3C#N)[nH]c2=O)ccc1C(=O)Nc1cccc(C(F)(F)F)c1 [Example-62, 4-(3-(2-Chloro-6-cyanophenyl)-5-oxo-4,5-dihydro-1H-1,2,4-triazol-1-yl)-2-methoxy-N-(3-(trifluoromethyl)phenyl)benzamide]",inhibition at 1 µM,97.8%
same,inhibition at 10 µM,98.3%
same,IC50,< 50 nM
"COc1cc(-n2nc(-c3cc(CNC(=O)C4CC4)ccc3Cl)[nH]c2=O)ccc1C(=O)Nc1ccc(F)c(C(F)F)c1 [Example-63, 4-(3-(2-Chloro-5-(cyclopropanecarboxamidomethyl)phenyl)-5-oxo-4,5-dihydro-1H-1,2,4-triazol-1-yl)-N-(3-(difluoromethyl)-4-fluorophenyl)-2-methoxybenzamide]",inhibition at 1 µM,92.4%
same,inhibition at 10 µM,94.8%
same,IC50,< 50 nM
"COc1cc(-n2nc(-c3c(Cl)cccc3Cl)[nH]c2=O)ccc1C(=O)Nc1cc(CNC(=O)C2CC2)ccc1Cl [Example-64, N-(2-Chloro-5-(cyclopropanecarboxamidomethyl)phenyl)-4-(3-(2,6-dichlorophenyl)-5-oxo-4,5-dihydro-1H-1,2,4-triazol-1-yl)-2-methoxybenzamide]",inhibition at 1 µM,28.9%
same,inhibition at 10 µM,63.8%
"COc1cc(-n2nc(-c3c(Cl)cccc3Cl)[nH]c2=O)ccc1-c1nc2cc(C(F)(F)F)ccc2[nH]1 [Example-65, 3-(2,6-Dichlorophenyl)-1-(3-methoxy-4-(5-(trifluoromethyl)-1H-benzo[d]imidazol-2-yl)phenyl)-1H-1,2,4-triazol-5(4H)-one]",inhibition at 1 µM,75.5%
same,inhibition at 10 µM,94.5%
"COc1cc(-n2nc(-c3cc(CNC(=O)C4CC4)ccc3Cl)[nH]c2=O)ccc1NC(=O)C1CC1 [Example-66, N-(4-Chloro-3-(1-(4-(cyclopropanecarboxamido)-3-methoxyphenyl)-5-oxo-4,5-dihydro-1H-1,2,4-triazol-3-yl)benzyl)cyclopropanecarboxamide]",inhibition at 1 µM,87.8%
same,inhibition at 10 µM,98.8%
same,IC50,> 100 nM
"COc1cc(-n2nc(-c3c(Cl)cccc3Cl)[nH]c2=O)ccc1C(=O)Nc1ccc(S(C)(=O)=O)cc1 [Example-67, 4-(3-(2,6-Dichlorophenyl)-5-oxo-4,5-dihydro-1H-1,2,4-triazol-1-yl)-2-methoxy-N-(4-(methylsulfonyl)phenyl)benzamide]",inhibition at 1 µM,72.7%
same,inhibition at 10 µM,96.3%
"COc1cc(-n2nc(-c3cc(CNC(=O)C4CC4)ccc3Cl)[nH]c2=O)ccc1C(=O)Nc1cccc(C(F)F)c1 [Example-68, 4-(3-(2-Chloro-5-(cyclopropanecarboxamidomethyl)phenyl)-5-oxo-4,5-dihydro-1H-1,2,4-triazol-1-yl)-N-(3-(difluoromethyl)phenyl)-2-methoxybenzamide]",inhibition at 1 µM,97.4%
same,inhibition at 10 µM,96.4%
same,IC50,< 50 nM
"COc1cc(-n2nc(-c3cc(S(=O)(=O)NC4CC4)ccc3Cl)[nH]c2=O)ccc1C(=O)Nc1cccc(C(F)(F)F)c1 [Example-69, 4-(3-(2-Chloro-5-(N-cyclopropylsulfamoyl)phenyl)-5-oxo-4,5-dihydro-1H-1,2,4-triazol-1-yl)-2-methoxy-N-(3-(trifluoromethyl)phenyl)benzamide]",inhibition at 1 µM,86.4%
same,inhibition at 10 µM,89.1%
same,IC50,> 100 nM
"CCn1c(-c2c(Cl)cccc2Cl)nn(-c2ccc(C(=O)Nc3cccc(C(F)(F)F)c3)c(OC)c2)c1=O [Example-70, 4-(3-(2,6-Dichlorophenyl)-4-ethyl-5-oxo-4,5-dihydro-1H-1,2,4-triazol-1-yl)-2-methoxy-N-(3-(trifluoromethyl)phenyl)benzamide]",inhibition at 1 µM,0.55%
same,inhibition at 10 µM,6.63%
CCn1c(-c2c(F)cccc2Cl)nn(-c2ccc(C#Cc3cccc(Cl)c3F)cc2)c1=O [Example-71],inhibition at 1 µM,12.9%
same,inhibition at 10 µM,17.9%
"O=C(Nc1cccc(C(F)(F)F)c1)c1ccc(-n2nc(-c3cc(CNC(=O)C4CC4)ccc3Cl)[nH]c2=O)cc1 [Example-72, 4-(3-(2-Chloro-5-(cyclopropanecarboxamidomethyl)phenyl)-5-oxo-4,5-dihydro-1H-1,2,4-triazol-1-yl)-N-(3-(trifluoromethyl)phenyl)benzamide]",inhibition at 1 µM,99.2%
same,inhibition at 3 µM,99%
same,IC50,< 50 nM
"COc1cc(-n2nc(-c3c(Cl)cccc3C#N)[nH]c2=O)ccc1C(=O)Nc1ccc(F)c(C(F)(F)F)c1 [Example-73, 4-(3-(2-Chloro-6-cyanophenyl)-5-oxo-4,5-dihydro-1H-1,2,4-triazol-1-yl)-N-(4-fluoro-3-(trifluoromethyl)phenyl)-2-methoxybenzamide]",inhibition at 1 µM,92.4%
same,inhibition at 10 µM,92.4%
same,IC50,< 50 nM
COc1cc(-c2nn(-c3c(Cl)cccc3Cl)c(=O)[nH]2)ccc1C#Cc1cccc(Cl)c1F [Example-74],inhibition at 1 µM,93.2%
same,inhibition at 10 µM,98.7%
same,IC50,50 to 100 nM
"COc1cc(-c2nn(-c3c(Cl)cccc3Cl)c(=O)[nH]2)ccc1C#Cc1ccc(C(F)(F)F)cc1Cl [Example-75, 3-(4-((2-Chloro-4-(trifluoromethyl)phenyl)ethynyl)-3-methoxyphenyl)-1-(2,6-dichlorophenyl)-1H-1,2,4-triazol-5(4H)-one]",inhibition at 1 µM,99.1%
same,inhibition at 10 µM,98.3%
same,IC50,< 50 nM
"COc1cc(-c2nn(-c3c(Cl)cccc3Cl)c(=O)[nH]2)ccc1C(=O)Nc1cccc(C(F)(F)F)c1 [Example-76, 4-(1-(2,6-Dichlorophenyl)-5-oxo-4,5-dihydro-1H-1,2,4-triazol-3-yl)-2-methoxy-N-(3-(trifluoromethyl)phenyl)benzamide]",inhibition at 1 µM,95.6%
same,inhibition at 10 µM,95.4%
same,IC50,< 50 nM
"COc1cc(-c2nn(-c3c(Cl)cccc3Cl)c(=O)[nH]2)ccc1C(=O)Nc1ccc(F)c(C(F)(F)F)c1 [Example-77, 4-(1-(2,6-Dichlorophenyl)-5-oxo-4,5-dihydro-1H-1,2,4-triazol-3-yl)-N-(4-fluoro-3-(trifluoromethyl)phenyl)-2-methoxybenzamide]",inhibition at 1 µM,93.2%
same,inhibition at 10 µM,98.1%
same,IC50,50 to 100 nM
O=C(NCc1ccc(Cl)c(-n2nc(-c3ccc(C#Cc4cc(Cl)ccc4Cl)cc3F)[nH]c2=O)c1)C1CC1 [Example-78],inhibition at 1 µM,99.9%
same,inhibition at 10 µM,99.9%
same,IC50,< 50 nM
"O=C(NCc1ccc(Cl)c(-n2nc(-c3ccc(C#Cc4ccc(Cl)cc4F)cc3F)[nH]c2=O)c1)C1CC1 [Example-79, N-(4-Chloro-3-(3-(4-((4-chloro-2-fluorophenyl)ethynyl)-2-fluorophenyl)-5-oxo-4,5-dihydro-1H-1,2,4-triazol-1-yl)benzyl)cyclopropanecarboxamide]",inhibition at 1 µM,99.1%
same,inhibition at 10 µM,97.1%
same,IC50,< 50 nM
"O=C(NCc1ccc(Cl)c(-n2nc(-c3ccc(C#Cc4cccc(C(F)(F)F)c4)cc3F)[nH]c2=O)c1)C1CC1 [Example-80, N-(4-Chloro-3-(3-(2-fluoro-4-((3-(trifluoromethyl)phenyl)ethynyl)phenyl)-5-oxo-4,5-dihydro-1H-1,2,4-triazol-1-yl)benzyl)cyclopropanecarboxamide]",inhibition at 1 µM,97%
same,inhibition at 10 µM,97.1%
same,IC50,< 50 nM
"O=C(NCc1ccc(Cl)c(-n2nc(-c3ccc(C#Cc4cccc(Cl)c4F)cc3F)[nH]c2=O)c1)C1CC1 [Example-81, N-(4-Chloro-3-(3-(4-((3-chloro-2-fluorophenyl)ethynyl)-2-fluorophenyl)-5-oxo-4,5-dihydro-1H-1,2,4-triazol-1-yl)benzyl)cyclopropanecarboxamide]",inhibition at 1 µM,99.8%
same,inhibition at 10 µM,98%
same,IC50,< 50 nM
